From ChEMBL document CHEMBL4406843, “β-Amino acid derivatives as mitochondrial complex III inhibitors of L. donovani: A promising chemotype targeting visceral leishmaniasis” (Eur J Med Chem, 2019)
Calls of active or inactive are those of the source. The calls are words filed in the database; no cut-off is given here.

Tests used:
[1] = Toxicity in BALB/c mouse infected with Leishmania donovani promastigotes assessed as serum ALT level at 50 mg/kg , ip measured after 3 to 7 weeks (rvb = 31 IU/L); assay type: organism-based; settings: in vivo
Leishmania donovani [2] = assay: Antileishmanial activity against Leishmania donovani promastigotes infected in BALB/c mouse assessed as inhibition in parasite burden in spleen at 200 mg/kg, ip administered for 7 days starting at 15 days post-infection and measured after 1 week post last dose Giemsa staining-based assay relative to control; assay type: functional
Leishmania donovani [3] = assay: Inhibition of ubiquinol cytochrome c reductase in Leishmania donovani promastigotes mitochondria at 8.1 to 50 uM using decylubiquinol as substrate in presence of cytochrome c
Leishmania donovani [4] = assay: Antileishmanial activity against Leishmania donovani amastigotes infected in golden hamster assessed as reduction in parasite burden in spleen at 50 mg/kg, ip administered on alternative days for 4 weeks starting at 4 weeks post-infection and measured after 2 week post last dose Giemsa staining-based assay relative to control; assay type: functional
[5] = Toxicity in BALB/c mouse infected with Leishmania donovani promastigotes assessed as serum AST level at 50 mg/kg , ip measured after 3 to 7 weeks (reference value: 114 U/L); assay type: organism-based; settings: in vivo
[6] = Intrinsic clearance in mouse liver microsomes after 1 hr in presence of NADPH by UPLC analysis; assay type: ADME, Microsome
Leishmania donovani [7] = assay: Induction of ROS generation in Leishmania donovani promastigotes at 50 uM after 6 hrs by H2DCFDA probe based flow cytometry (reference value: 1.97%); assay type: functional
Leishmania donovani [8] = assay: Induction of plasma membrane permeabilization in Leishmania donovani promastigotes assessed as increase in fluorescence at 50 uM after 2 hrs by SYTOX green-based flow cytometry analysis relative to control; assay type: functional
[9] = Stability in mouse liver microsomes assessed as compound remaining after 1 hr in presence of NADPH by UPLC analysis; assay type: ADME, Microsome; settings: read-out: Stability
Leishmania donovani [10] = assay: Antileishmanial activity against Leishmania donovani promastigotes infected in BALB/c mouse assessed as reduction in parasite burden in spleen at 25 mg/kg, ip administered for 7 days starting at 15 days post-infection and measured after 1 week post last dose Giemsa staining-based assay relative to control; assay type: functional
[11] = Toxicity in golden hamster infected with Leishmania donovani amastigotes assessed as effect on survival at 12.5 to 200 mg/kg, ip administered on alternative days for 4 weeks starting at 4 weeks post-infection; assay type: organism-based, Mesocricetus auratus; settings: in vivo, 672 h
Leishmania donovani [12] = assay: Antileishmanial activity against Leishmania donovani MHOM/IN/80/Dd8 amastigotes harboring luciferase reporter gene infected in mouse J774 cells at 25 uM after 72 hrs by Steady-Glo luminescence assay relative to control; assay type: functional; settings: MHOM/IN/80/Dd8, J774, 72 h
Leishmania donovani [13] = assay: Antileishmanial activity against Leishmania donovani amastigotes infected in golden hamster assessed as reduction in parasite burden in liver at 50 mg/kg, ip administered on alternative days for 4 weeks starting at 4 weeks post-infection and measured after 2 week post last dose Giemsa staining-based assay relative to control; assay type: functional
[14] = Cytotoxicity against mouse J774 cells assessed as reduction in cell viability after 72 hrs by MTT assay; assay type: cell-based
Leishmania donovani [15] = assay: Induction of ROS generation in Leishmania donovani promastigotes at 50 uM after 48 hrs by H2DCFDA probe based flow cytometry (reference value: 1.97%); assay type: functional
Leishmania donovani [16] = assay: Induction of apoptosis in Leishmania donovani promastigotes assessed as early apoptotic cells at 50 uM after 24 hrs by Annexin-V/propidium iodide staining based flow cytometric method (reference value: 5.79%); assay type: functional
Leishmania donovani [17] = assay: Induction of apoptosis in Leishmania donovani promastigotes assessed as necrotic cells at 50 uM after 24 hrs by Annexin-V/propidium iodide staining based flow cytometric method (reference value: 0.06%); assay type: functional
Mus musculus = assay: Immunostimulatory activity in BALB/c mouse infected with Leishmania donovani promastigotes assessed as induction of IL-2 cytokine production at 50 mg/kg administered for 5 days starting at 15 days post infection and measured after 3 to 7 weeks by ELISA; assay type: functional, organism-based
[18] = AUC(0 to infinity) in BALB/c mouse at 50 mg/kg, ip by HPLC analysis; assay type: ADME, organism-based; design: dose 50 mg/kg, route intraperitoneal, time infinity; settings: in vivo
[19] = Clearance in BALB/c mouse at 50 mg/kg, ip by HPLC analysis; assay type: ADME, organism-based; settings: in vivo
[20] = Elimination rate constant in BALB/c mouse at 50 mg/kg, ip by HPLC analysis; assay type: ADME, organism-based; settings: in vivo
Leishmania donovani [21] = assay: Induction of mitochondrial dysfunction in Leishmania donovani promastigotes assessed as reduction in mitochondrial membrane potential at 50 uM after 6 hrs by JC-1 staining-based flow cytometric analysis (reference value: 7.73%); assay type: functional; design: scale not given: the % may be the effect or the level left
[22] = Half life in mouse liver microsomes after 1 hr in presence of NADPH by UPLC analysis; assay type: ADME, Microsome
Leishmania donovani [23] = assay: Antileishmanial activity against Leishmania donovani MHOM/IN/80/Dd8 amastigotes harboring luciferase reporter gene infected in mouse J774 cells at 50 uM after 72 hrs by Steady-Glo luminescence assay relative to control; assay type: functional; settings: MHOM/IN/80/Dd8, J774, 72 h
Leishmania donovani [24] = assay: Induction of mitochondrial dysfunction in Leishmania donovani promastigotes assessed as reduction in mitochondrial membrane potential at 50 uM after 3 hrs by JC-1 staining-based flow cytometric analysis (reference value: 7.73%); assay type: functional; design: scale not given: the % may be the effect or the level left
Leishmania donovani [25] = assay: Inhibition of ubiquinol cytochrome c reductase in Leishmania donovani promastigotes mitochondria at 50 uM using decylubiquinol as substrate in presence of cytochrome c relative to control
[26] = Cytotoxicity against mouse J774 cells assessed as cell viability up to 100 uM after 72 hrs by MTT assay relative to control; assay type: cell-based; settings: read-out: Activity
Leishmania donovani [27] = assay: Induction of bio-energetic collapse in Leishmania donovani promastigotes assessed as reduction in ATP level at 50 uM after 48 hrs by bioluminescence based method relative to control; assay type: functional; design: scale not given: the % may be the effect or the level left
[28] = Cytotoxicity against African green monkey Vero cells assessed as cell viability up to 100 uM after 72 hrs by MTT assay relative to control; assay type: cell-based; settings: chlorocebus sabaeus, read-out: Activity
Leishmania donovani [29] = assay: Induction of membrane depolarization in Leishmania donovani promastigotes assessed as increase in fluorescence at MIC by DiBAC4 dye based flow cytometry analysis; assay type: functional, organism-based; settings: TDE = time-dependent effect
[30] = Half life in BALB/c mouse at 50 mg/kg, ip by HPLC analysis; assay type: ADME, organism-based; settings: in vivo
[31] = Cytotoxicity against BALB/c mouse splenocytes assessed as cell viability at 100 uM after 72 hrs by MTT assay relative to control; assay type: cell-based, Splenocyte; settings: read-out: Activity
Leishmania donovani [32] = assay: Induction of mitochondrial dysfunction in Leishmania donovani promastigotes assessed as reduction in mitochondrial membrane potential at 50 uM after 12 hrs by JC-1 staining-based flow cytometric analysis (reference value: 7.73%); assay type: functional; design: scale not given: the % may be the effect or the level left
[33] = Volume of distribution in BALB/c mouse at 50 mg/kg, ip by HPLC analysis; assay type: ADME, organism-based; settings: in vivo
Leishmania donovani [34] = assay: Antileishmanial activity against Leishmania donovani MHOM/IN/80/Dd8 amastigotes harboring luciferase reporter gene infected in mouse J774 cells at 100 uM after 72 hrs by Steady-Glo luminescence assay relative to control; assay type: functional; settings: MHOM/IN/80/Dd8, J774, 72 h
Leishmania donovani [35] = assay: Antileishmanial activity against promastigote stage of Leishmania donovani MHOM/IN/80/Dd8 harboring luciferase reporter gene at 50 uM after 48 hrs by Steady-Glo luminescence assay relative to control; assay type: functional; settings: MHOM/IN/80/Dd8, 48 h

CCOC(=O)C(C(=O)c1ccc(OC)cc1)C(NC(C)=O)c1cccc2ccccc12 (stereo unspecified)
Activity [1]: 17 to 177 IU/L | inhibition in vivo at 200 mg/kg (Leishmania donovani [2]): 93.1% | inhibition (Leishmania donovani [3]): Active | inhibition in vivo at 50 mg/kg (Leishmania donovani [4]): 90.4% | Activity [5]: 54 to 298 IU/L | CLH [6]: 15 µL/min/mg | Activity (Leishmania donovani [7]): 30.3% | Activity (Leishmania donovani [8]): 3.1% | remaining at 1 h [9]: 86.9% | inhibition in vivo at 25 mg/kg (Leishmania donovani [10]): 68.5% | Activity [11]: Non-Toxic | inhibition at 25 µM (Leishmania donovani [12]): 64.1% | inhibition in vivo at 50 mg/kg (Leishmania donovani [13]): 88.2% | CC50 at 72 h [14]: > 350 µM | Activity (Leishmania donovani [15]): 65.74% | Activity (Leishmania donovani [16]): 8.56% | Activity (Leishmania donovani [17]): 0.07% | Activity (Mus musculus): inactive | AUC(0-inf) [18]: 1280 ng·h/mL | CL/F [19]: 664 mL/min/kg | k el [20]: 3.89e-05 s⁻¹ | Activity (Leishmania donovani [21]): 19.52% | half-life [22]: 5.22 h | inhibition at 50 µM (Leishmania donovani [23]): 93.5% | Activity (Leishmania donovani [24]): 8.62% | inhibition (Leishmania donovani [25]): > 49% | viability at 72 h [26]: > 93% | Activity (Leishmania donovani [27]): >67% | viability at 72 h [28]: > 93% | Activity (Leishmania donovani [29]): Tde | half-life [30]: 5.11 h | viability at 72 h, 100 µM [31]: > 90.2% | Activity (Leishmania donovani [32]): 37.26% | Vd [33]: 301.51 L/kg | inhibition at 100 µM (Leishmania donovani [34]): 95.9% | inhibition at 50 µM (Leishmania donovani [35]): 96.6%
